Test results from patent publication US20200316090A1, “TARGETED THERAPEUTICS” (MADRIGAL PHARMACEUTICALS, INC., priority 2012, published 2020).
Read-outs that look alike come from different tables or passages of the source.

Assays:
[1] = PAMPA
Protocol: (§1) In order to test the ability SDC-TRAP molecules of the invention to enter cells, an artificial membrane permeability assay (“PAMPA”) was used. […] LC/MS was used in conjunction with PAMPA assays to determine the ability of the SDC-TRAP molecules of the invention to permeate cells.
(§2) Pre-coated PAMPA plates were warmed to room temperature for at least 30 minutes prior to adding assay components.
(§3) Stock solutions were prepared with the SDC-TRAP molecules to be tested. In order to make a working solution, either 50 μL of 100 μM Stock in DMSO+950 μL of PBS or 50 μL of 200 stock was added to 96 deep well plate, resulting in a 5 μM final concentration or a 10 μM final concentration, respectively. […] 200 μL of PBS was added into the corresponding wells of an acceptor PAMPA plates.
(§4) The acceptor plate was lowered onto the donor plate and allowed to incubate for five hours. After five hours, a 50 μL aliquot was removed from each well of each plate and added into a new 96 deep-well plate.
(§5) 100 μL of methanol containing an internal standard was added to each aliquot and analyzed by LC/MS. The internal standard was 150 ng/ml SDC-TRAP-0002.
(§6) In order to calculate the permeability for each SDC-TRAP molecule and the control molecules, the following formula was used:
Permeability (in Unit of Cm/s):
(§7) [formula] • C0=initial compound concentration in donor well (mM) • CD (t)=compound concentration in donor well at time t. (mM) • CA (t)=compound concentration in acceptor well at time t. (mM) • VD=donor well volume=0.3 mL • VA=acceptor well volume=0.2 mL • A=filter area=0.3 cm^2 • t=incubation time=18000 s (5 h)
(§8) For the data presented in the table below, peak area was used in place of concentration in the formula above.

HER2 = HER2 degradation in BT-474 cells (Example 3, Method 1 Western blot / Method 2 LI-COR imaging); type: cell-based, human; conditions: 0.5 μM, overnight
Source text: This example illustrates how a HER2 degradation assay may be used as a test to determine and select Hsp90-targeting moieties suitable for use in SDC-TRAPs of the invention, and further illustrates the ability of SDC-TRAPs to target cells preferentially expressing Hsp90. Such a test may further be used to determine the Hsp90 binding ability of SDC-TRAPs of the invention, as well as through competitive binding assays and cell-based Hsp90 client protein degradation assays known in the art.
After treatment, each cytoplasmic sample is prepared from 1×10^6 cells by incubation of cell lysis buffer (#9803, Cell Signaling Technology) on ice for 10 minutes. The resulting supernatant used as the cytosol fractions is dissolved with sample buffer for SDS-PAGE and run on a SDS-PAGE gel, blotted onto a nitrocellulose membrane by using semi-dry transfer. […]
Cells are then fixed in 4% phosphate-buffered paraformaldehyde for 30 minutes at room temperature and then permeabilized by washing five times with 0.1% Triton X-100 in PBS for 5 minutes at room temperature on a shaker. […] The raw data is normalized to DRAQS and the HER2 EC50 is calculated using XLfit™ […]

[2] = Tissue distribution of ganetespib in female CD-1 nu/nu mice bearing RERF human NSCLC xenografts; type: in vivo; conditions: mouse, tumor, ganetespib 50 mg/kg IV, DRD
Source text: Tissue Distribution of Ganetespib in Female CD-1 Nu/Nu Mice Bearing RERF Human NSCLC Xenografts
To confirm the distribution of ganetespib in blood, livers, kidneys, brains, hearts, lungs and tumors after IV administration of ganetespib to female CD-1 nu/nu mice bearing RERF human NSCLC xenografts, and to examine metabolic profiles of ganetespib in plasma, red blood cells, and above tissues.
Animals: female CD-1 nu/nu mice bearing RERF human NSCLC xenografts (N=3/group)
Formulation: 10% DMSO, 18% Cremophor RH40, 3.6% dextrose solution (DRD)
Bleeding time points: 5 min, 6, 24 hr
Collected tissues: blood (plasma and red blood cells (RBC)), liver, kidneys, brain, heart, lung, tumor
Protein precipitation: 50 μL of 10 times diluted plasma or RBC+150 μL ACN (10 mM NH4OAc), vortexed and centrifuged at 10000 rpm for 8 min; 150 μL supernatant+150 μL water (10 mM NH4OAc)
Protein precipitation: 100 μL homogenized tissue (1:3 tissue: PBS buffer)+100 μL ACN (10 mM NH4OAc), vortexed and centrifuged at 10000 rpm for 8 min

[3] = Tissue distribution of SDC-TRAP and degradation products in tumor-bearing mice (plasma, tumor, heart); type: in vivo, Female SCID Mouse (H1975); conditions: mouse, in vivo
Protocol: A 150 ng/mL solution of SDC-TRAP-0002 in methanol was prepared using an internal spiking solution (500 μg/mL SDC-TRAP-0002 in DMSO). Using the 10 mM stock solutions of the SDC-TRAP molecule and its Hsp90i binding moiety and effector moiety in DMSO, spiking solutions were prepared at 0.025, 0.05, 0.1, 0.5, 1, 5, 10, 50, 100, 250, and 500 μM in DMSO. 5 μL of each spiking solution was added to a 96-deep well plate.
Quality control standards were prepared from 5 μL of 0.1, 1, and 10 μM calibration standard spiking solution added in triplicate into 96-deep well plate and adding 50 μL of matrix (plasma or homogenized tumor).
To prepare test samples, test plasma was diluted as needed using blank plasma. Tumor samples were pulverized in liquid nitrogen, weighed, and homogenized in PBS at 5× volume to sample weight. 50 μL of unknown plasma or homogenized tumor sample was mixed with 5 μL of DMSO. The samples were extracted by precipitating calibration standards, QC standards, and unknown samples with 200 μL of internal standard solution. The samples were mixed by vortex at room temperature for approximately 1.5 minutes, then centrifuge at 2-8° C. 150 μL of supernatant was collected and 25 μL of water added. Samples were mixed and analyzed by LC-MS/MS.
Samples of plasma, heart and tumor were excised from a euthanized mouse, homogenized in PBS at 5 times tissue weight and diluted in 5 μL DMSO/50 μL sample. Prior to analysis, 55 μL samples and calibration standards were precipitated in 200 μL methanol in 96-well plates. Samples were mixed on a vortex mixer for 1.5 minutes at 1500 rpm at room temperature, then centrifuged at 4400 rpm for 10 minutes at 8° C. 150 μL of each supernatant was transferred to a well of a new 96-well plate, and 25 μL of water was added and mixed with the sample. […] For the analysis of samples from female SCID mice, a gradient of solvent A (water/0.1% formic acid) and B (acetonitrile/0.1% formic acid) was used as in Table A below.

[4] = Mouse plasma stability (Examples 16-18); type: in vitro ADME; conditions: 37° C.; for Mouse (5 μM) % Remaining 1 h (37° C.) * / Mouse (10 μM) % Remaining 1 h (37° C.) *: sum of both peaks of parent chromatogram
Protocol: This solution was used to precipitate all plasma samples in the study. 200 μL was pipetted into a 96 deepwell plate over dry ice. 10 μL of 1 mM stock in DMSO was added to a 1.5 mL microfuge tube, then 990 μL of plasma. Samples were mixed by vortex, then 50 μL of each sample was added in triplicate to a 96-well plate containing internal standard solution. This was designated the 0 hour time point sample. 250 μL of the remaining plasma sample was added to each of four 96 deepwell plates—one per time point. Samples were incubated at 37° C. with gentle shaking for 0.25, 0.5, and 1 hour. After each time point, one plate of each sample was removed from the shaker and placed on wet ice for approximately 2 minutes. 50 μL plasma aliquots (in triplicate) were added to the deepwell plate containing internal standard solution. After the last time point was extracted, the 96 deepwell plate was vortexed, then centrifuged at 2-8° C. 150 μL of supernatant was collected and 25 μL of water was added. Samples were mixed and analyzed by LC-MS/MS.
The stability of seven SDC-TRAP types in mouse plasma was measured as follows. 990 μL mouse plasma aliquots from a common stock were spiked with 10 μL of 1 mM stock of one of seven SDC-TRAP samples identified in the table below. Each sample was mixed and divided into 250 μL aliquots, each representing time points 0, 15 minutes, 30 minutes or 1 hour. At the prescribed time point, 3×50 μL samples were each mixed with 200 μL of methanol containing internal standard and held on dry ice until all time point samples were extracted. The samples collectively were vortex mixed for 1.5 minutes at 1500 rpm, then centrifuged at 4400 rpm for 10 minutes at 8° C.

[5] = Artificial membrane permeability assay (PAMPA)
Protocol: as §1, §2, §3, §4, §5, §6
Permeability (in Unit of Cm/s):
as §7, §8

[6] = tested on: MCF-7 breast cancer cells; assay: Mouse xenograft efficacy in an MCF-7 breast cancer model; type: in vivo, CD-1 nude mice
Protocol: MCF-7 breast cancer cells were purchased from ATCC. […] Fetal bovine serum was then added to the medium. The final concentration of fetal bovine serum was 10%. Cells were cultured at 37° C. and 5% CO2.
Mice that were not put on treatment were euthanized. Animals were sourced through CRL (Wilmington, Mass.).

in vitro = conditions: PAMPA, Permeability (cm/s)
Protocol: as §1, §2, §3, §4, §5, §6
Permeability (in Unit of Cm/s):
as §7, §8

## CC(C)c1cc(-c2nnc(O)n2-c2ccc3c(ccn3CCNC(=O)CCCC[C@@H]3SC[C@@H]4NC(=O)N[C@@H]43)c2)c(O)cc1O [SDC-TRAP-0233]
[1]
  Mass Retention (%): 10.9%
  Permeability: 0.021 ×10⁻⁶ cm/s
  Permeability (10^−6 cm/s): 0.021 10^−6 cm/s

## C=CCNC1=C2C[C@@H](C)C[C@H](OC)[C@H](O)[C@@H](C)/C=C(\C)[C@H](OC(N)=O)[C@@H](OC)/C=C\C=C(/C)C(=O)NC(=CC1=O)C2=O [17-AAG]
HER2
  degradation of HER2: partial degradation of HER2

## CC(C)c1cc(-c2nnc(O)n2-c2ccc3c(ccn3CCNC(=O)CCCCCNC(=O)CCCC[C@H]3SC[C@H]4NC(=O)N[C@H]43)c2)c(O)cc1O [SDC-TRAP-0234]
[1]
  Mass Retention (%): 9.56%
  Permeability: 0.0123 ×10⁻⁶ cm/s
  Permeability (10^−6 cm/s): 0.0123 10^−6 cm/s

## CC(C)c1cc(-c2n[nH]c(=O)n2-c2ccc3c(ccn3C)c2)c(O)cc1O [ganetespib]
[2]
  concentration at 5 min: 2350 nM

## CCc1c2c(nc3ccc(OC(=O)N4CCN(Cc5ccc(-n6c(O)nnc6-c6cc(C(C)C)c(O)cc6O)cc5)CC4)cc13)-c1cc3c(c(=O)n1C2)COC(=O)C3(O)CC (stereo not shown) [SDC-TRAP-0046, 4,11-diethyl-4-hydroxy-3,14-dioxo-3,4,12,14-tetrahydro-1H-pyrano[3′,4′:6,7]indolizino[1,2-b]quinolin-9-yl 4-(4-(3-(2,4-dihydroxy-5-isopropylphenyl)-5-hydroxy-4H-1,2,4-triazol-4-yl)benzyl)piperazine-1-carboxylate]
[3]; female, SCID, tissue distribution of SDC-TRAP-0046, 12 h, read-out: Plasma Conc.
  concentration at 12 h: 54.2 nM
[3]; female, SCID, tissue distribution of SDC-TRAP-0046, 12 h, read-out: Tumor/Plasma Ratio
  Kp at 12 h: 40.3
[4]; 5 μM, 1 h, data from single parent peak
  Mouse (5 μM) % Remaining 1 h (37° C.) §: 62%
[4]; 5 μM, 1 h
  Mouse (5 μM) % Remaining 1 h (37° C.) *: 65%
[4]; 5 μM
  Mouse (5 μM) % Remaining 19 h (37° C.): 37%
[4]; 1 h
  Mouse (10 μM) % Remaining 1 h (37° C.) *: 57%
[5]
  Papp at 5 h: 0.0122 ×10⁻⁶ cm/s
[5]; same protocol, second table
  Mass Retention (%): 88.1%
  Permeability (10^−6 cm/s): 0.0122 10^−6 cm/s

## CCc1c2c(nc3ccc(OC(=O)N4CCC(CCn5ccc6cc(-n7c(O)nnc7-c7cc(C(C)C)c(O)cc7O)ccc65)CC4)cc13)-c1cc3c(c(=O)n1C2)COC(=O)[C@]3(O)CC [SDC-TRAP-0063, 4,11-diethyl-4-hydroxy-3,14-dioxo-3,4,12,14-tetrahydro-1H-pyrano[3′,4′:6,7]indolizino[1,2-b]quinolin-9-yl 4-(2-(5-(3-(2,4-dihydroxy-5-isopropylphenyl)-5-hydroxy-4H-1,2,4-triazol-4-yl)-1H-indol-1-yl)ethyl)piperidine-1-carboxylate]
[3]; female, SCID
  Kp at 1 h: 0.17
  Kp at 6 h: 2.25
  Kp at 24 h: 20.4
  Kp at 48 h: 6.85
  Kp at […]: 0.01
  concentration at 1 h: 52900 nM
  concentration at 6 h: 4000 nM
  concentration at 24 h: 359 nM
  concentration at 48 h: 1110 nM
[3]; female, SCID, 1 h
  Tumor Conc.: 9.12 nmol/g of tissue
[3]; female, SCID, 6 h
  Tumor Conc.: 8.98 nmol/g of tissue
[3]; female, SCID, 24 h
  Tumor Conc.: 7.32 nmol/g of tissue
[3]; female, SCID, 48 h
  Tumor Conc.: 7.60 nmol/g of tissue
[3]
  selective targeting of tumor (tissue distribution in plasma, tumor and heart): selectively targets and accumulates in tumor cells
[6]; 150 mg/kg/1×wk versus 100 mg/kg/1×wk (FIG. 8)
  suppression of increase in tumor volume: appears to prolong the suppression of increase in tumor volume compared to a lower dose (100 mg/kg/1×wk)
[6]; either dose (150 or 100 mg/kg/1×wk) (FIG. 8)
  tumor growth suppression versus comparators: greater tumor growth suppression than effector moiety irinotecan alone, or unconjugated binding moiety ganetespib and effector moiety irinotecan administered together
[5]; same protocol, second table
  Mass Retention (%): 18.7%

## CCc1c2c(nc3ccc(O)cc13)-c1cc3c(c(=O)n1C2)COC(=O)[C@]3(O)CC [SN-38, reference compound]
[3]; female, SCID
  Kp at 6 h: 5.8
  Kp at 12 h: 105
  Kp at 24 h: 105
  Kp at […]: 0.13
  concentration at 6 h: 77.3 nM
  concentration at 12 h: 9.55 nM
  concentration at 24 h: 9.55 nM
[3]; female, SCID, 24 h
  Tumor Conc.: 1.07 nmol/g of tissue
[3]; female, SCID, 48 h
  Tumor Conc.: 0.046 nmol/g of tissue
[4]; 5 μM, 1 h
  Mouse (5 μM) % Remaining 1 h (37° C.) *: 87%
[4]; 5 μM
  Mouse (5 μM) % Remaining 19 h (37° C.): 52%
[4]; 1 h
  Mouse (10 μM) % Remaining 1 h (37° C.) *: 64%
In vitro; 5 h incubation, peak area used in place of concentration, first table
  Papp: 0.643 ×10⁻⁶ cm/s
In vitro; same protocol, second table
  Papp: 1.87 ×10⁻⁶ cm/s
[5]; 5 h incubation, first table
  Mass Retention (%): 38.2%
[5]; Permeability (10^−6 cm/s), 5 h incubation, peak area used in place of concentration, first table
  Papp at 5 h: 0.643 ×10⁻⁶ cm/s
[5]; Permeability (10^−6 cm/s), same protocol, second table
  Papp at 5 h: 1.87 ×10⁻⁶ cm/s
[5]; same protocol, second table
  Mass Retention (%): 46.6%
